Reference: ChEMBL document CHEMBL4507258 (2021)

Columns and labels:
[1] = target: Serine/threonine-protein kinase NIM1 (Homo sapiens) (UniProt Q8IY84); conditions: Compound concentration 1000.0 nM
[2] = target: MAP kinase-activated protein kinase 5 (Homo sapiens) (UniProt Q8IW41); conditions: Compound concentration 1000.0 nM
[3] = target: NT-3 growth factor receptor (Homo sapiens) (UniProt Q16288); conditions: Compound concentration 1000.0 nM
[4] = target: Ribosomal protein S6 kinase beta-1 (Homo sapiens) (UniProt P23443); conditions: Compound concentration 1000.0 nM
[5] = target: Cyclin-dependent kinase 9 (Homo sapiens) (UniProt P50750); conditions: Compound concentration 1000.0 nM
[6] = target: Serine/threonine-protein kinase Nek6 (Homo sapiens) (UniProt Q9HC98); conditions: Compound concentration 1000.0 nM
[7] = target: Mitogen-activated protein kinase kinase kinase 13 (Homo sapiens) (UniProt O43283); conditions: Compound concentration 1000.0 nM
[8] = target: Inhibitor of nuclear factor kappa-B kinase subunit epsilon (Homo sapiens) (UniProt Q14164); conditions: Compound concentration 1000.0 nM
[9] = target: Myotonin-protein kinase (Homo sapiens) (UniProt Q09013); conditions: Compound concentration 1000.0 nM
[10] = system: Epidermal growth factor receptor (Homo sapiens), P00533 [UNDEFINED MUTATION]; conditions: Compound concentration 1000.0 nM
[11] = target: Tyrosine-protein kinase Tec (Homo sapiens) (UniProt P42680); conditions: Compound concentration 1000.0 nM
[12] = target: Serine/threonine-protein kinase 32C (Homo sapiens) (UniProt Q86UX6); conditions: Compound concentration 1000.0 nM
[13] = target: Serine/threonine-protein kinase LATS2 (Homo sapiens) (UniProt Q9NRM7); conditions: Compound concentration 1000.0 nM
Serine/threonine-protein kinase LATS2 (Homo sapiens), sequence (Q9NRM7 whole entry): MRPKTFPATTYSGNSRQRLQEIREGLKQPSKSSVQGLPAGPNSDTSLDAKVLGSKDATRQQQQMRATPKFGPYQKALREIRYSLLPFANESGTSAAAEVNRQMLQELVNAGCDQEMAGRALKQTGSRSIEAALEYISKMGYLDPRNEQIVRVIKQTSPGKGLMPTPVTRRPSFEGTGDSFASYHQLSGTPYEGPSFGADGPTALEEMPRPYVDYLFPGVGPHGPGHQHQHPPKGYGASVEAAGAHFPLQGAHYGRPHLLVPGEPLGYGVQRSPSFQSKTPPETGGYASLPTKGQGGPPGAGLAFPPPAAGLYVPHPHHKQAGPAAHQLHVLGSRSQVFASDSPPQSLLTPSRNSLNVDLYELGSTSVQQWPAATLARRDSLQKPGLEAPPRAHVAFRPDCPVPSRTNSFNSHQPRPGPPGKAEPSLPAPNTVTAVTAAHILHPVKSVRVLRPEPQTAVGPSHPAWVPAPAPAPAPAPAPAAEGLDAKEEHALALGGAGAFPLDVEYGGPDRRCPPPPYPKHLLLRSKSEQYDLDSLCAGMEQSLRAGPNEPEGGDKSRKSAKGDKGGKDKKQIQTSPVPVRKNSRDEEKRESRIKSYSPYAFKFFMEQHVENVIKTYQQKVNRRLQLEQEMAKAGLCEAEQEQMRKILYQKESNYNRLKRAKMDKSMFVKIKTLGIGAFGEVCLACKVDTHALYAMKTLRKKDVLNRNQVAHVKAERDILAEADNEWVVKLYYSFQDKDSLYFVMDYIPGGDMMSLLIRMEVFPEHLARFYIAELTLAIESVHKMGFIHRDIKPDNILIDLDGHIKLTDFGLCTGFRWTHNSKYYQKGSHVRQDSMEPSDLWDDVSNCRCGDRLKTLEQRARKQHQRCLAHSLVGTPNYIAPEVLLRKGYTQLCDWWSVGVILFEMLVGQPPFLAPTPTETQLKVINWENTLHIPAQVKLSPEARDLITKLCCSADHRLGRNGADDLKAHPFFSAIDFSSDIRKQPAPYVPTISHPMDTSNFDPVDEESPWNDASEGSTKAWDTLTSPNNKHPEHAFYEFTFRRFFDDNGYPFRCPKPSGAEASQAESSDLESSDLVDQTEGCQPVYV

[14] = target: Mitogen-activated protein kinase kinase kinase kinase 5 (Homo sapiens) (UniProt Q9Y4K4); conditions: Compound concentration 1000.0 nM
[15] = target: Cyclin-dependent kinase 18 (Homo sapiens) (UniProt Q07002); conditions: Compound concentration 1000.0 nM
[16] = target: Phosphatidylinositol 4-phosphate 5-kinase type-1 gamma (Homo sapiens) (UniProt O60331); conditions: Compound concentration 1000.0 nM
[17] = target: Non-receptor tyrosine-protein kinase TYK2 (Homo sapiens) (UniProt P29597); conditions: Compound concentration 1000.0 nM
[18] = target: Tyrosine-protein kinase JAK1 (Homo sapiens) (UniProt P23458); conditions: Compound concentration 1000.0 nM
[19] = target: Phosphatidylinositol 4,5-bisphosphate 3-kinase catalytic subunit beta isoform (Homo sapiens) (UniProt P42338); conditions: Compound concentration 1000.0 nM
[20] = target: Serine/threonine-protein kinase pim-2 (Homo sapiens) (UniProt Q9P1W9); conditions: Compound concentration 1000.0 nM
[21] = target: Tyrosine-protein kinase Fer (Homo sapiens) (UniProt P16591); conditions: Compound concentration 1000.0 nM
[22] = target: 1-phosphatidylinositol 3-phosphate 5-kinase (Homo sapiens) (UniProt Q9Y2I7); conditions: Compound concentration 1000.0 nM
[23] = target: Serine/threonine-protein kinase Sgk2 (Homo sapiens) (UniProt Q9HBY8); conditions: Compound concentration 1000.0 nM
Serine/threonine-protein kinase Sgk2 (Homo sapiens), sequence (Q9HBY8 whole entry): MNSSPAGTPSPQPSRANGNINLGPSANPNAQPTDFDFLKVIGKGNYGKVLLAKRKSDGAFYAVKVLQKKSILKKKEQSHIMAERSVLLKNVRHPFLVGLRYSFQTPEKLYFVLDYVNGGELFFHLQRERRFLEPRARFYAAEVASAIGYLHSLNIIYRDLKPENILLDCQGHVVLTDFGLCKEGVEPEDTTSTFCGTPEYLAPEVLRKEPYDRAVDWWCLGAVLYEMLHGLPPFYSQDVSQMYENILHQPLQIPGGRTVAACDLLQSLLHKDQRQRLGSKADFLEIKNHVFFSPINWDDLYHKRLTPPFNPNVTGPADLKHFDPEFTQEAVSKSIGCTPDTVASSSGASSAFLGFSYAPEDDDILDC

[24] = target: STE20-like serine/threonine-protein kinase (Homo sapiens) (UniProt Q9H2G2); conditions: Compound concentration 1000.0 nM
[25] = target: Fibroblast growth factor receptor 3 (Homo sapiens) (UniProt P22607); conditions: Compound concentration 1000.0 nM
[26] = target: Ribosomal protein S6 kinase alpha-6 (Homo sapiens) (UniProt Q9UK32); conditions: Compound concentration 1000.0 nM
[27] = system: Tyrosine-protein kinase ABL1 (Homo sapiens), P00519 [F317I]; conditions: Compound concentration 1000.0 nM
[28] = target: Death-associated protein kinase 3 (Homo sapiens, UniProt O43293); conditions: Compound concentration 1000.0 nM
[29] = target: Macrophage colony-stimulating factor 1 receptor (Homo sapiens) (UniProt P07333); conditions: Compound concentration 1000.0 nM
[30] = target: Tyrosine-protein kinase BTK (Homo sapiens) (UniProt Q06187); conditions: Compound concentration 1000.0 nM
[31] = target: Sodium-dependent serotonin transporter (Homo sapiens) (UniProt P31645); conditions: Compound concentration 10.0 uM
Sodium-dependent serotonin transporter (Homo sapiens), sequence (P31645 whole entry, looked up): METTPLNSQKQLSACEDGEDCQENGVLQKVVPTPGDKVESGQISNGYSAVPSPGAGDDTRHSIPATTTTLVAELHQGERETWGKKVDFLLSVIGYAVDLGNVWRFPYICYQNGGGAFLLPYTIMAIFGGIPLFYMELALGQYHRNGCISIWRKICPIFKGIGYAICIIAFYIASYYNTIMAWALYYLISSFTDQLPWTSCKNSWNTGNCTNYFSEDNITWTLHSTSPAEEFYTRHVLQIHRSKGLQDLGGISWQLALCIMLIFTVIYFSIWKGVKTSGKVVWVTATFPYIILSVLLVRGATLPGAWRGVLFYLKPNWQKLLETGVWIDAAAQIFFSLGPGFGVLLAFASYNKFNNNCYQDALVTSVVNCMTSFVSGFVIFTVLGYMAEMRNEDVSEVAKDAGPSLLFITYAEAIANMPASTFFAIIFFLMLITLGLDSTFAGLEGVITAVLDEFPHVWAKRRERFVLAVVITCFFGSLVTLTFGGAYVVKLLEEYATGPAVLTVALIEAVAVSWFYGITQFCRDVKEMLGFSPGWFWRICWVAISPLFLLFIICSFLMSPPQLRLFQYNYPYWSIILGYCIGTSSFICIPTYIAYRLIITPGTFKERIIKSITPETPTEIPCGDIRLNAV

[32] = target: Tyrosine-protein kinase HCK (Homo sapiens) (UniProt P08631); conditions: Compound concentration 1000.0 nM
Tyrosine-protein kinase HCK (Homo sapiens), sequence (P08631 2-526 limits assumed): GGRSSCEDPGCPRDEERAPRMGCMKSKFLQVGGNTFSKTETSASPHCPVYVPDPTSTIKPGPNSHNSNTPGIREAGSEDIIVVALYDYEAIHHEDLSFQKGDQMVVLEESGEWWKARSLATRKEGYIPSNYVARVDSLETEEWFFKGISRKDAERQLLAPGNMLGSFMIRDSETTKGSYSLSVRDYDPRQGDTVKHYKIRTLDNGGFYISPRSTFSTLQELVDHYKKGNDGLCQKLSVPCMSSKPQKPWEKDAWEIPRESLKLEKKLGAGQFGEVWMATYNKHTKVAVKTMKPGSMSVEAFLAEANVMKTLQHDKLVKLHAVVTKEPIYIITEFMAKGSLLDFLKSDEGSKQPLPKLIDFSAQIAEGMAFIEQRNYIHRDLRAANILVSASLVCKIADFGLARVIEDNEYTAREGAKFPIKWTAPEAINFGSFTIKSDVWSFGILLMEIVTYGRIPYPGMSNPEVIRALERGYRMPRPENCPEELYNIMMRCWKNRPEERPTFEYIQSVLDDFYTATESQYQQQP

[33] = target: Calcium/calmodulin-dependent protein kinase type 1D (Homo sapiens) (UniProt Q8IU85); conditions: Compound concentration 1000.0 nM
Calcium/calmodulin-dependent protein kinase type 1D (Homo sapiens), sequence (Q8IU85 whole entry, looked up): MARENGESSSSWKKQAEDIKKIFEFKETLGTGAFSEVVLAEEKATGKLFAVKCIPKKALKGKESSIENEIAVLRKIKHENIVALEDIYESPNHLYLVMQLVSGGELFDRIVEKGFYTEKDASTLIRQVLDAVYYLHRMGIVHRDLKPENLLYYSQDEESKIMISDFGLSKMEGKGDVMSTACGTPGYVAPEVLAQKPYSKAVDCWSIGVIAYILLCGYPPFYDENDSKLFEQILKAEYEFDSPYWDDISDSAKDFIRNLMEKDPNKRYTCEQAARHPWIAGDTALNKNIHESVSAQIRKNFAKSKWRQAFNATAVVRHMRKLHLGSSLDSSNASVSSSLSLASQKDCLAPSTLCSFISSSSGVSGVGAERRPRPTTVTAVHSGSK

[34] = system: Tyrosine-protein kinase ABL1 (Homo sapiens), P00519 [F317L]; conditions: Compound concentration 1000.0 nM
[35] = target: Mitogen-activated protein kinase kinase kinase 11 (Homo sapiens) (UniProt Q16584); conditions: Compound concentration 1000.0 nM
[36] = target: Activin receptor type-1 (Homo sapiens) (UniProt Q04771); conditions: Compound concentration 1000.0 nM
[37] = target: Membrane-associated tyrosine- and threonine-specific cdc2-inhibitory kinase (Homo sapiens) (UniProt Q99640); conditions: Compound concentration 1000.0 nM
Membrane-associated tyrosine- and threonine-specific cdc2-inhibitory kinase (Homo sapiens), sequence (Q99640 whole entry): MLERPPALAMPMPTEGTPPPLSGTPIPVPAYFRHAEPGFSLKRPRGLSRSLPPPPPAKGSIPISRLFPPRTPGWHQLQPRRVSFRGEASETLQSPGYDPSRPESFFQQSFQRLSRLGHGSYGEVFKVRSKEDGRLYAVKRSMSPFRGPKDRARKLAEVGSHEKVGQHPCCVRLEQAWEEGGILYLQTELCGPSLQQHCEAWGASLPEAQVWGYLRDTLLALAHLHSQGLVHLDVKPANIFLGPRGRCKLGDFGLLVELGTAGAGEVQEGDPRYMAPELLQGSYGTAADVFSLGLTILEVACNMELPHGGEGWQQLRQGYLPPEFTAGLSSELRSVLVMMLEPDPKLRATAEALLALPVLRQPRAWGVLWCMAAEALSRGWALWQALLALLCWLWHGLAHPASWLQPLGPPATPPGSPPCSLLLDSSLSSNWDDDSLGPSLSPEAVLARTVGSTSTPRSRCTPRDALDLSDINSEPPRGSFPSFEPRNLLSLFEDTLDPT

[38] = target: MAP kinase-interacting serine/threonine-protein kinase 2 (Homo sapiens) (UniProt Q9HBH9); conditions: Compound concentration 1000.0 nM
[39] = target: Casein kinase II subunit alpha' (Homo sapiens) (UniProt P19784); conditions: Compound concentration 1000.0 nM
[40] = target: Mu-type opioid receptor (Homo sapiens, UniProt P35372); conditions: Compound concentration 10.0 uM
Mu-type opioid receptor, sequence (P35372 whole entry): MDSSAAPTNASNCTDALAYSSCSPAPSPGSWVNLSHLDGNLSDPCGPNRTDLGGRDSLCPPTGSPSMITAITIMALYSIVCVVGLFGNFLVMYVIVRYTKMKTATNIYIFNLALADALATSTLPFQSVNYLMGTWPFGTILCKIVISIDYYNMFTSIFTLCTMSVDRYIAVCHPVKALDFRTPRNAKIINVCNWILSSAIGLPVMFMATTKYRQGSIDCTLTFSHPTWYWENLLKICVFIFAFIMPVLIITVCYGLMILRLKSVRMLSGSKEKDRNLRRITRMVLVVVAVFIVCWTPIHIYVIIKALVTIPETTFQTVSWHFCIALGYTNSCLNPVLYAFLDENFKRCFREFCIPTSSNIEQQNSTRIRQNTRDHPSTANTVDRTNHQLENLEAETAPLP

[41] = target: Protein kinase C epsilon type (Homo sapiens) (UniProt Q02156); conditions: Compound concentration 1000.0 nM
[42] = target: Alpha-1B adrenergic receptor (Homo sapiens) (UniProt P35368); conditions: Compound concentration 10.0 uM
[43] = system: Tyrosine-protein kinase ABL1 (Homo sapiens), P00519 [E255K]; conditions: Compound concentration 1000.0 nM
[44] = target: Bone morphogenetic protein receptor type-2 (Homo sapiens) (UniProt Q13873); conditions: Compound concentration 1000.0 nM
[45] = target: Beta-adrenergic receptor kinase 1 (Homo sapiens) (UniProt P25098); conditions: Compound concentration 1000.0 nM
Beta-adrenergic receptor kinase 1 (Homo sapiens), sequence (P25098 whole entry): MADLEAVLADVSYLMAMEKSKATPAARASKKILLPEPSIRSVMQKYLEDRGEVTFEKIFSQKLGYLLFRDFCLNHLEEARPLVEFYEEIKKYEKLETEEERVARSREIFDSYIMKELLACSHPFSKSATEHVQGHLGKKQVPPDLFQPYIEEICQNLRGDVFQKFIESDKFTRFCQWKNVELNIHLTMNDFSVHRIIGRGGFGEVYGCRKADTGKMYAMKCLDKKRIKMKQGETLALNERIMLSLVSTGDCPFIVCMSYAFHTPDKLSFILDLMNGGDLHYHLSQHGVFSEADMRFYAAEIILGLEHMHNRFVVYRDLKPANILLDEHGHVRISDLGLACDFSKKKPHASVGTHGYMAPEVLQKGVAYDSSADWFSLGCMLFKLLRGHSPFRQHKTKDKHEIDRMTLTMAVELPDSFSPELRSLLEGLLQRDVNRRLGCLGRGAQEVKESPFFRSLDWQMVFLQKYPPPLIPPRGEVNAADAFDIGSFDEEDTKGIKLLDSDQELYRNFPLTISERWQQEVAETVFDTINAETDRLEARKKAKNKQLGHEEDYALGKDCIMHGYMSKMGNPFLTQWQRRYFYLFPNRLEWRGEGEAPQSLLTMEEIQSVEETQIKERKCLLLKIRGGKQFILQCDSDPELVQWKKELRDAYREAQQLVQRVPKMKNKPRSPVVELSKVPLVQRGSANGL

Serine/threonine-protein kinase NIM1 (Homo sapiens), sequence (Q8IY84 whole entry): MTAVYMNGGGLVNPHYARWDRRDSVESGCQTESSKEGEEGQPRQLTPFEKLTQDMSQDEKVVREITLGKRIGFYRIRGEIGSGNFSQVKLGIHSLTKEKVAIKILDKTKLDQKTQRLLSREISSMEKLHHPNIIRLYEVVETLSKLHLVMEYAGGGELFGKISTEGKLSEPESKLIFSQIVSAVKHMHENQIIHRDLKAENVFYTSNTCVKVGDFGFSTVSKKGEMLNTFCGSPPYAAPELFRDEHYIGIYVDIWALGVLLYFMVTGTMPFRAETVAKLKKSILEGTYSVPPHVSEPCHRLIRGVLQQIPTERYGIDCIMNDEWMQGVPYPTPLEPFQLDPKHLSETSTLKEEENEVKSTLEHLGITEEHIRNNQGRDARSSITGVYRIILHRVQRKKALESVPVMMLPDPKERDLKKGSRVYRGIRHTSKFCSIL

## CCCCN(CCCC)C(=O)CN1C[C@@H](c2cc(OC)c3c(c2)OCO3)[C@H](C(=O)O)[C@H]1CC(C)(C)CCC [A-545]
[1]
  residual activity: 100%
[2]
  residual activity: 100%
[3]
  residual activity: 87.6%
[4]
  residual activity: 99%
[5]
  residual activity: 100%
[6]
  residual activity: 98.1%
[7]
  residual activity: 100%
[8]
  residual activity: 89.7%
[9]
  residual activity: 100%
[10]
  residual activity: 100%
[11]
  residual activity: 100%
[12]
  residual activity: 100%
[13]
  residual activity: 100%
[14]
  residual activity: 100%
[15]
  residual activity: 92.4%
[16]
  residual activity: 100%
[17]
  residual activity: 95.8%
[18]
  residual activity: 79%
[19]
  residual activity: 100%
[20]
  residual activity: 96.3%
[21]
  residual activity: 100%
[22]
  residual activity: 81.4%
[23]
  residual activity: 78.5%
[24]
  residual activity: 92.5%
[25]
  residual activity: 88.5%
[26]
  residual activity: 96.6%
[27]
  residual activity: 100%
[28]
  residual activity: 100%
[29]
  residual activity: 86.7%
[30]
  residual activity: 100%
[31]
  inhibition: -7.99%
[32]
  residual activity: 82.8%
[33]
  residual activity: 94.4%
[34]
  residual activity: 93.5%
[35]
  residual activity: 100%
[36]
  residual activity: 100%
[37]
  residual activity: 100%
[38]
  residual activity: 96.5%
[39]
  residual activity: 77.1%
[40]
  inhibition: 58.5%
[41]
  residual activity: 100%
[42]
  inhibition: 6.5%
[43]
  residual activity: 93.5%
[44]
  residual activity: 86.7%
[45]
  residual activity: 97.8%

## CCCCN(CCCC)C(=O)CN1C[C@H](c2cc(OC)c3c(c2)OCO3)[C@@H](C(=O)O)[C@@H]1CC(C)(C)CCC [ABT-546]
[1]
  residual activity: 100%
[2]
  residual activity: 67.9%
[3]
  residual activity: 50.5%
[4]
  residual activity: 92.8%
[5]
  residual activity: 100%
[6]
  residual activity: 100%
[7]
  residual activity: 89.3%
[8]
  residual activity: 80.9%
[9]
  residual activity: 100%
[10]
  residual activity: 95.6%
[11]
  residual activity: 100%
[12]
  residual activity: 100%
[13]
  residual activity: 100%
[14]
  residual activity: 100%
[15]
  residual activity: 100%
[16]
  residual activity: 65.9%
[17]
  residual activity: 85.9%
[18]
  residual activity: 98%
[19]
  residual activity: 56.9%
[20]
  residual activity: 100%
[21]
  residual activity: 100%
[22]
  residual activity: 100%
[23]
  residual activity: 69.9%
[24]
  residual activity: 100%
[25]
  residual activity: 100%
[26]
  residual activity: 76.4%
[27]
  residual activity: 98.5%
[28]
  residual activity: 100%
[29]
  residual activity: 100%
[30]
  residual activity: 61.3%
[31]
  inhibition: 15.3%
[32]
  residual activity: 100%
[33]
  residual activity: 100%
[34]
  residual activity: 96.7%
[35]
  residual activity: 100%
[36]
  residual activity: 100%
[37]
  residual activity: 100%
[38]
  residual activity: 83%
[39]
  residual activity: 98.4%
[40]
  inhibition: 14.2%
[41]
  residual activity: 100%
[42]
  inhibition: -7.9%
[43]
  residual activity: 83.7%
[44]
  residual activity: 80%
[45]
  residual activity: 71.8%
